The record followed here is US20180125992A1, “DRUG DELIVERY CONJUGATES OF TERTIARY AMINE […]” (ENDOCYTE, INC., priority 2016, published 2018).

pIC50: −log10 of the molar value.

The test system of this test is KB cells. Kind of test: In vitro FR specific activity of folate conjugates: 3H-thymidine incorporation in KB cells. The note with it: 2 h pulse at 37° C., chase up to 72 h, without excess folate. It is filed as cell-based. The protocol:
KB cells were seeded in individual 24-well Falcon plates and allowed to form nearly confluent monolayers overnight in FFRPMI/HIFCS. Thirty minutes prior to the addition of folate-conjugate, spent medium was aspirated from all wells and replaced with either fresh FFRPMI or FFRPMI supplemented with 100 μM FA. Each well then received 1 mL of medium containing increasing concentrations of folate-conjugate (3 wells per sample). Cells were pulsed for 2 h at 37° C., rinsed 4 times with 0.5 mL of medium and then chased in 1 mL of fresh medium up to 72 h. Spent medium was aspirated from all wells and replaced with fresh medium containing 5 μCi/mL of ^3H-thymidine. Following a 2 h incubation at 37° C., cells were washed 3 times with 0.5 mL of PBS and then treated with 0.5 mL of ice-cold 5% trichloroacetic acid per well. After 15 min, the trichloroacetic acid was aspirated and the cells solubilized by the addition of 0.5 mL of 0.25 N sodium hydroxide for 15 min at room temperature. Four hundred and fifty μL of each solubilized sample were transferred to scintillation vials containing 3 mL of Ecolume scintillation cocktail and counted in a liquid scintillation counter. Final results were expressed as the percentage of ^3H-thymidine incorporation relative to untreated controls.
(Uptake of a labelled nucleoside into DNA is a usual measure of proliferation.)

With `CCCC(=O)OCN(C(=O)[C@@H](NC(=O)[C@H]1CCCC[N+]1(C)CCSSC[C@H](NC(=O)[C@H](CC(=O)O)NC(=O)[C@H](CC(=O)O)NC(=O)[C@H](CCCNC(=N)N)NC(=O)[C@H](CC(=O)O)NC(=O)CC[C@H](NC(=O)c1ccc(NCc2cnc3nc(N)[nH]c(=O)c3n2)cc1)C(=O)O)C(=O)O)C(C)CC)[C@H](C[C@@H](OC(C)=O)c1nc(C(=O)N[C@@H](Cc2ccccc2)C[C@H](C)C(=O)OC)cs1)C(C)C` (some centres unmarked) [Compound 1], the pIC50 (as a rule, −log10 of the IC50, conventionally taken in molar units) was 8.30.
The result for `CC/C=C/CN(C(=O)[C@@H](NC(=O)[C@H]1CCCC[N+]1(C)Cc1ccc(SSC[C@H](NC(=O)[C@H](CC(=O)O)NC(=O)[C@H](CC(=O)O)NC(=O)[C@H](CCCNC(=N)N)NC(=O)[C@H](CC(=O)O)NC(=O)CC[C@H](NC(=O)c2ccc(NCc3cnc4nc(N)[nH]c(=O)c4n3)cc2)C(=O)O)C(=O)O)cc1)C(C)CC)[C@H](C[C@@H](OCC)c1nc(C(=O)N[C@@H](Cc2ccc(O)cc2)C[C@H](C)C(=O)O)cs1)C(C)C` (some centres unmarked) [Compound 2] reads 8.15.
